Source: patent publication US8546395B2, “6-cycloamino-3-(1H-pyrrolo[2,3-b]pyridin-4-yl)imidazo[1,2-b]pyridazine derivatives, preparation thereof and therapeutic use thereof” (Sanofi, priority 2008, dated 2013)

What was measured:
[1] = biological target: T1, casein kinase 1 epsilon (CK1 epsilon) (Homo sapiens, UniProt P49674); test: Filter-plate assay of ATP-33P for CK1 epsilon inhibitors (phosphorylation of casein); type: biochemical; settings: casein substrate, ATP-33P with 10 μM cold ATP, 2 hours at ambient temperature
T1 construct: Invitrogen Corporation (as an alternative)
T1 sequence (P49674 whole entry): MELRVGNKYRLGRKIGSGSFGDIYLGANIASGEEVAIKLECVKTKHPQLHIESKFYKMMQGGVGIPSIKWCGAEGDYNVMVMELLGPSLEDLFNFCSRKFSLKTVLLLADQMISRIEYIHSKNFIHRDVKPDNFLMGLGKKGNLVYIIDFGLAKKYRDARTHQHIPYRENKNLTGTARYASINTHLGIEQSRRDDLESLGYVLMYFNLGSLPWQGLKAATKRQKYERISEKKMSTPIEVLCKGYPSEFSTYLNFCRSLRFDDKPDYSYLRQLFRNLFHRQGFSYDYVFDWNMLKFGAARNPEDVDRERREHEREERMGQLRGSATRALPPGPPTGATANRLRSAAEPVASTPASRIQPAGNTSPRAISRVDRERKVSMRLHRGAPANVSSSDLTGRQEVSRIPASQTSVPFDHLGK
Protocol: The capacity of the compounds of the invention to inhibit the phosphorylation of casein by casein kinase 1 epsilon and delta may be evaluated according to the procedure described in US 2005/0131012.
Filter-Plate Assay of ATP-^33P for the Screening of CK1 Epsilon Inhibitors:
The effect of the compounds on inhibition of the phosphorylation of casein by the enzyme casein kinase 1 epsilon (CK1 epsilon) is measured, using a casein assay with filtration of ATP-^33P in vitro.
Casein kinase 1 epsilon (0.58 mg/ml) is obtained via fermentation and purification processes performed according to methods that are well known to those skilled in the art, or may also be obtained from Invitrogen Corporation™ (human CK1 epsilon).
The compounds are tested at five different concentrations so as to generate IC50 values, i.e. the concentration at which a compound is capable of inhibiting the enzymatic activity by 50%, or alternatively the percentage of inhibition at a concentration of 10 micromolar.
“U”-bottomed Falcon plates are prepared by placing 5 μL of solutions of the compounds according to the invention at concentrations of 10, 1, 0.1, 0.01 or 0.001 μM in various wells. The solutions of the compounds according to the invention at these various concentrations are prepared by diluting in a test buffer (50 mM Tris, pH 7.5, […], 2 mM DTT and 1 mM EGTA) a stock solution in DMSO at a concentration of 10 mM. Next, 5 μL of dephosphorylated casein are added to a final concentration of 0.2 μg/μL, 20 μl of CK1 epsilon to a final concentration of 3 ng/μl, and 20 μl of ATP-^33P to a final concentration of 0.02 μCi/μl mixed with cold ATP (10 μM final—approximately 2×10^6 CPM per well). The final total test volume per well is equal to 50 μl.
The “U”-bottomed Falcon® test plate mentioned above is vortexed, and then incubated at ambient temperature for 2 hours. After 2 hours, the reaction is stopped by adding an ice-cold solution of 65 μl of ATP (2 mM) prepared in test buffer.
100 μl of the reaction mixture are then transferred from the “U”-bottomed Falcon® plate into Millipore® MAPH filter plates, preimpregnated with 25 μl of ice-cold 100% TCA. […]
The plates are left to dry overnight at ambient temperature. […] The radiation emitted by each well is then measured for 2 minutes in a Packard® Topcount NXT scintillation counter, in which the values of CPM/well are measured.
The percentage inhibition of the capacity of the enzyme to phosphorylate the substrate (casein) is determined for each concentration of compound tested. These inhibition data expressed as percentages are used to calculate the IC50 value for each compound compared with the controls.
The kinetic studies determined the KM value for ATP as being 21 μM in this test system.

[2] = tested on: Mper1-luc Rat-1 (P2C4) fibroblasts; test: Circadian cell assay (mPer1-luciferase reporter, period prolongation); type: cell-based; settings: effective concentration that induced a 1-hour prolongation of the circadian period, interpolated from hyperbolic curve
Protocol: Experimental Protocols for Circadian Cell Assay
Mper1-luc Rat-1 (P2C4) fibroblast cultures were prepared by dividing the cultures every 3-4 days (approximately 10-20% of confluence) on 150 cm^2 degassed polystyrene tissue culture flasks (Falcon® #35-5001) and maintained in growth medium [EMEM (Celigro #10-010-CV); 10% foetal bovine serum (FBS; Gibco #16000-044); and 50 I.U./ml of penicillin-streptomycin (Celigro #30-001-CI)] at 37° C. and under 5% CO2.
Cells obtained from Rat-1 fibroblast cultures at 30-50% of confluence as described above were co-transfected with vectors containing the selection marker for resistance to zeocin for a stable transfection and a luciferase reporter gene controlled by the mPer-1 promoter. After 24 to 48 hours, the cultures were divided on 96-well plates and maintained in growth medium supplemented with 50-100 μg/ml of zeocin (Invitrogen® #45-0430) for 10-14 days. The zeocin-resistant stable transfectants were evaluated for the expression of the reporter by adding 100 μM luciferin (Promega® #E1603®) to the growth medium and by assaying the luciferase activity on a TopCount scintillation counter (Packard Model #C384V00). The Rat-1 cell clones expressing both zeocin resistance and lucerifase activity controlled by mPer1 were serum-shock synchronized with 50% horse serum [HS (Gibco® #16050-122)] and the activity of the circadian reporter was evaluated. The P2C4 clone of Mper1-luc Rat-1 fibroblasts was selected to test the compound. Mper1-luc Rat-1 ([…]) fibroblasts at 40-50% of confluence, obtained according to the protocol described above, were plated out onto 96-well opaque tissue culture plates (Perkin Elmer® #6005680). […]
The period analysis was performed either by determining the interval between the relative light emission minima over several days or by Fourier transform. […] The data were analysed by adjusting a hyperbolic curve to the data expressed as change of period (y-axis) as a function of the concentration of the test compound (x-axis) in the XLfit™ software and the CE Delta (t+1 h) was interpolated from this curve.

human CK1 delta = biological target: T2, human CK1 delta (Homo sapiens, UniProt P48730); test: FRET fluorescence test (Z'Lyte kinase assay Kit), peptide substrate SER/THR 11; type: biochemical; settings: peptide substrate 2 μM, ATP at 4 times the KM
T2 construct: purchased Invitrogen Corporation PV3665
T2 sequence (P48730 whole entry): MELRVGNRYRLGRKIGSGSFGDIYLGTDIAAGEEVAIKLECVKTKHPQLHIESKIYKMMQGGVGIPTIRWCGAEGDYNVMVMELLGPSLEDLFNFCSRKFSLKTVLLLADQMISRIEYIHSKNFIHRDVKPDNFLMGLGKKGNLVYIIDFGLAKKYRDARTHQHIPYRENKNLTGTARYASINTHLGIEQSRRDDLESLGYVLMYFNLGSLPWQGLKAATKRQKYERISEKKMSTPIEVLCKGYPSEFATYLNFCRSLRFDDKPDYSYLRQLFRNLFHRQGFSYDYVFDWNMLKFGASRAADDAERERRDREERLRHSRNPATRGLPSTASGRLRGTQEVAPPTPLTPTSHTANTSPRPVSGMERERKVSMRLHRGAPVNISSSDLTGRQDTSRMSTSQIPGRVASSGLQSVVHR
Description: The capacity of the compounds of the invention to inhibit the phosphorylation of casein by casein kinase 1 epsilon and delta may be evaluated using a FRET (“Fluorescence Resonance Energy Transfer) fluorescence test with the aid of the “Z'Lyte™ kinase assay Kit” (reference PV3670; Invitrogen Corporation™) according to the manufacturer's instructions.
The casein kinases 1 used are obtained from Invitrogen Corporation (human CK1 epsilon PV3500 and human CK1 delta PV3665).
A peptide substrate, labelled at both ends with a fluorophor donor group (coumarin) and a fluorophor acceptor group (fluorescein) constituting a FRET system is phosphorylated in the presence of ATP by casein kinase 1 epsilon or delta in the presence of increasing concentrations of compounds of the invention.
The mixture is treated with a site-specific protease that specifically cleaves the peptide substrate to form two fluorescent fragments having a large fluorescence emission ratio.
The fluorescence observed is thus related to the capacity of the products of the invention to inhibit the phosphorylation of the peptide substrate by casein kinase 1 epsilon or casein kinase 1 delta.
The compounds of the invention are dissolved at different concentrations starting with a 10 mM stock solution in DMSO diluted in a buffer containing 50 mM HEPS, pH 7.5, 1 m MEGTA, 0.01% Brij-35, 10 mM MgCl2 for casein kinase 1 epsilon and supplemented with Trizma Base (50 mM), pH 8.0, and NaN3 (0.01% final) for casein kinase 1 delta.
The phosphorylation of the peptide substrate SER/THR 11 obtained from Invitrogen Corporation™ is performed at a final concentration of 2 μM. The ATP concentration is 4 times the KM, this value being 2 μM for casein kinase 1 epsilon and 4 μM for casein kinase 1 delta.
The emitted fluorescence is measured at wavelengths of 445 and 520 nm (excitation at 400 nm).

SMILES | IC50 [1] [nM] | melting point [°C] | CE Delta (t + 1 h) [2] [nM] | IC50 (human CK1 delta) [nM]
C[C@@H]1CN(c2ccc3nc(-c4ccc(F)cc4)c(-c4ccnc5[nH]ccc45)n3n2)CCN1 [Compound 6, 2-(4-Fluorophenyl)-6-[(3R)-3-methylpiperazin-1-yl]-3-(1H-pyrrolo[2,3-b]pyridin-4-yl)imidazo[1,2-b]pyridazine] | 1 to 2 | 285 to 287 | 2 to 3 | –
CC(C)(O)CN1CCN(c2ccc3nc(-c4ccc(F)cc4)c(-c4ccnc5[nH]ccc45)n3n2)CC1 [Compound 20, 1-{4-[2-(4-Fluorophenyl)-3-(1H-pyrrolo[2,3-b]pyridin-4-yl)imidazo[1,2-b]pyridazin-6-yl]piperazin-1-yl}-2-methylpropan-2-ol] | – | 273 to 276 | – | 30 to 42
Cc1cc(N2C[C@H]3CN(C)C[C@H]3C2)nn2c(-c3ccnc4[nH]ccc34)c(-c3ccc(F)cc3)nc12 [Compound 29, (Cis)-2-(4-fluorophenyl)-8-methyl-6-(5-methyl-hexahydropyrrolo[3,4-c]pyrrol-2(1H)-yl)-3-(1H-pyrrolo[2,3-b]pyridin-4-yl)imidazo[1,2-b]pyridazine] | – | – | – | 5
Fc1ccc(-c2nc3ccc(N4CCC5(CCCNC5)CC4)nn3c2-c2ccnc3[nH]ccc23)cc1 [Compound 35, 9-[2-(4-Fluorophenyl)-3-(1H-pyrrolo[2,3-b]pyridin-4-yl)imidazo[1,2-b]pyridazin-6-yl]-2,9-diazaspiro[5.5]undecane] | 6 | – | 305 | –
